Measured values taken from the NIST ThermoML archive (doi:10.1016/j.jct.2011.12.035).

Assay: xn = mol fraction of the nth substance listed
Settings: Gas, Buoyancy - hydrostatic balance with magnetic suspension - one sinker

N#N [nitrogen] + O=C=O
Settings	mass density [kg/m3]
250.01 K, 994.48 kPa, x2 = 0.2	15.21
250.02 K, 1979.3 kPa, x2 = 0.2	30.827
250.02 K, 4032.4 kPa, x2 = 0.2	65.204
250.02 K, 6013.2 kPa, x2 = 0.2	100.543
250.02 K, 8000.9 kPa, x2 = 0.2	137.785
250.02 K, 10004 kPa, x2 = 0.2	176.401
250.02 K, 12010 kPa, x2 = 0.2	215.101
250.02 K, 14018 kPa, x2 = 0.2	252.741
250.02 K, 16027 kPa, x2 = 0.2	288.385
250.02 K, 18039 kPa, x2 = 0.2	321.449
250.02 K, 19633 kPa, x2 = 0.2	345.629
250.04 K, 2996.3 kPa, x2 = 0.2	47.559
250.04 K, 4997.5 kPa, x2 = 0.2	82.144
250.05 K, 488.24 kPa, x2 = 0.2	7.397
250.05 K, 997.91 kPa, x2 = 0.2	15.262
250.05 K, 6997.7 kPa, x2 = 0.2	118.767
250.05 K, 8998.8 kPa, x2 = 0.2	156.893
250.05 K, 11001 kPa, x2 = 0.2	195.63
250.05 K, 13005 kPa, x2 = 0.2	233.864
250.05 K, 15008 kPa, x2 = 0.2	270.511
250.05 K, 17012 kPa, x2 = 0.2	304.796
250.05 K, 17639 kPa, x2 = 0.2	314.981
274.99 K, 998.23 kPa, x2 = 0.2	13.8
274.99 K, 1987.8 kPa, x2 = 0.2	27.804
274.99 K, 3995.6 kPa, x2 = 0.2	57.18
274.99 K, 5997.2 kPa, x2 = 0.2	87.563
274.99 K, 7998.9 kPa, x2 = 0.2	118.772
274.99 K, 10000 kPa, x2 = 0.2	150.404
274.99 K, 12005 kPa, x2 = 0.2	182.017
274.99 K, 14006 kPa, x2 = 0.2	213.01
274.99 K, 16009 kPa, x2 = 0.2	243.011
274.99 K, 18043 kPa, x2 = 0.2	272.044
274.99 K, 19430 kPa, x2 = 0.2	290.888
275.02 K, 996.58 kPa, x2 = 0.501	16.162
275.02 K, 1993.3 kPa, x2 = 0.501	33.323
275.02 K, 2996.6 kPa, x2 = 0.501	51.754
275.02 K, 3997.4 kPa, x2 = 0.501	71.374
275.02 K, 4998.7 kPa, x2 = 0.501	92.411
275.02 K, 5999.5 kPa, x2 = 0.501	114.98
275.02 K, 7003.4 kPa, x2 = 0.501	139.278
275.02 K, 8006 kPa, x2 = 0.501	165.225
275.02 K, 9125.5 kPa, x2 = 0.501	196.081
275.02 K, 10029 kPa, x2 = 0.501	222.169
275.02 K, 11018 kPa, x2 = 0.501	251.523
275.02 K, 12025 kPa, x2 = 0.501	281.541
275.02 K, 13025 kPa, x2 = 0.501	310.916
275.03 K, 14032 kPa, x2 = 0.501	339.405
275.03 K, 15032 kPa, x2 = 0.501	366.266
275.03 K, 15926 kPa, x2 = 0.501	388.806
275.04 K, 17027 kPa, x2 = 0.501	414.634
275.04 K, 17563 kPa, x2 = 0.501	426.437
299.95 K, 2996.2 kPa, x2 = 0.2	38.386
299.95 K, 4996.3 kPa, x2 = 0.2	64.833
299.95 K, 6997.1 kPa, x2 = 0.2	91.756
299.95 K, 8997.6 kPa, x2 = 0.2	118.906
299.95 K, 11032 kPa, x2 = 0.2	146.5
299.95 K, 13037 kPa, x2 = 0.2	173.362
299.95 K, 15002 kPa, x2 = 0.2	199.149
299.95 K, 17077 kPa, x2 = 0.2	225.549
299.95 K, 18151 kPa, x2 = 0.2	238.85
299.96 K, 492.88 kPa, x2 = 0.2	6.193
299.96 K, 984.74 kPa, x2 = 0.2	12.423
299.96 K, 995.87 kPa, x2 = 0.501	14.686
299.96 K, 15998 kPa, x2 = 0.501	308.658
299.97 K, 1995.1 kPa, x2 = 0.501	30.061
299.97 K, 2998.8 kPa, x2 = 0.501	46.195
299.97 K, 4000.2 kPa, x2 = 0.501	62.993
299.97 K, 5015.8 kPa, x2 = 0.501	80.785
299.97 K, 6023.7 kPa, x2 = 0.501	99.216
299.97 K, 7004.9 kPa, x2 = 0.501	117.9
299.97 K, 8009.1 kPa, x2 = 0.501	137.74
299.97 K, 9014.3 kPa, x2 = 0.501	158.299
299.97 K, 9993.3 kPa, x2 = 0.501	178.967
299.97 K, 9996.5 kPa, x2 = 0.501	178.959
299.97 K, 10996 kPa, x2 = 0.501	200.469
299.97 K, 11995 kPa, x2 = 0.501	222.215
299.97 K, 12998 kPa, x2 = 0.501	244.208
299.97 K, 13996 kPa, x2 = 0.501	266
299.97 K, 14996 kPa, x2 = 0.501	287.528
299.97 K, 16996 kPa, x2 = 0.501	329.04
299.97 K, 17997 kPa, x2 = 0.501	348.774
299.97 K, 19020 kPa, x2 = 0.501	368.091
299.97 K, 19970 kPa, x2 = 0.501	385.259
324.96 K, 1994 kPa, x2 = 0.2	23.265
324.96 K, 1994.1 kPa, x2 = 0.2	23.265
324.96 K, 3976.6 kPa, x2 = 0.2	46.775
324.96 K, 5997.1 kPa, x2 = 0.2	70.986
324.96 K, 7997.5 kPa, x2 = 0.2	95.062
324.96 K, 9999.3 kPa, x2 = 0.2	119.106
324.96 K, 12001 kPa, x2 = 0.2	142.924
324.96 K, 14002 kPa, x2 = 0.2	166.343
324.96 K, 16004 kPa, x2 = 0.2	189.249
324.96 K, 18002 kPa, x2 = 0.2	211.461
324.96 K, 19964 kPa, x2 = 0.2	232.536
324.98 K, 974.07 kPa, x2 = 0.501	13.176
324.98 K, 1991.5 kPa, x2 = 0.501	27.367
324.98 K, 2996.4 kPa, x2 = 0.501	41.83
324.98 K, 3995.3 kPa, x2 = 0.501	56.615
324.98 K, 4997.2 kPa, x2 = 0.501	71.872
324.98 K, 5995.1 kPa, x2 = 0.501	87.485
324.98 K, 6998.1 kPa, x2 = 0.501	103.583
324.98 K, 7998.2 kPa, x2 = 0.501	120.002
324.98 K, 9001.9 kPa, x2 = 0.501	136.826
